Measured values: US20180346505A1, “MONONUCLEOTIDES HAVING A BIOREVERSIBLE DISULFIDE GROUP” (priority 2014, published 2018)

Experiments:
Huh-7 cells = experiment: Toxicity by CytoTox-1 cell proliferation assay (TC50) and selectivity index; format: cell-based; settings: TC50 by CytoTox-1 cell proliferation assay over replicon EC50, Huh-7 cells
Method: (§1) All the replicon assays were luciferase based in Huh-7 cells, either in stable format (GT1b and GT1a) or by transient transfection by electroporation (chimeric and mutant replicons). For a standard HCV replicon assay, stable or transiently transfected Huh-7 cells were seeded in 96-well plates (5,000 cells/well), cultured in DMEM containing 10% FBS, and incubated at 37° C., 5% CO2. On the following day, test compounds were diluted with assay media and added to the appropriate wells (final DMSO concentration in the cell culture medium was 0.5%). Assay reference positive control was included in each run to ensure assay performance. Cells were incubated at 37° C., 5% CO2 for 72 hours, at which time the cells were still sub-confluent. The antiviral activity was determined by measuring replicon reporter firefly luciferase activity using Bright Glo kit in accordance with the protocol provided by the supplier (Promega). The toxicity of the test compounds was assessed by CytoTox-1 cell proliferation assay (Promega). The half maximal effective concentration (EC50) and the half maximal toxic concentration (TC50) values were calculated using the GraphPad Prism software.

[1] = test system: GT1b L159F NS5B mutant replicon; experiment: HCV NS5B mutant replicon assay, GT1b L159F; format: cell-based; settings: Hepatitis C virus, Huh-7, 72 h, read-out: GT1b L159F EC50
Method: (§2) The antiviral activity of the test compounds was assessed in the wild type GT1b (Con1), GT1a (H77), and GT1b/2a, GT1b/3a, GT1b/4a and GT1b/5a NS5B chimeric replicons, as well as the NS5B mutant replicons listed in Table 2a and 2b.
(§3) The HCV replicon mutants were generated by site-directed mutagenesis (SDM). The SDM was performed by PCR and the PCR fragments were inserted into the backbone replicon construct. The inserted PCR fragments and the mutants were confirmed by sequencing.
as §1

[2] = test system: GT1b/5a NS5B chimeric replicon; experiment: HCV replicon assay, GT1b/5a NS5B chimeric replicon, transient transfection; format: cell-based, hepatitis C virus; settings: Hepatitis C virus, Huh-7, 72 h, read-out: GT5a EC50, GT1b/5a NS5B chimeric replicon, Huh-7 cells, luciferase, 72 hours
Method: as §2
(§4) To generate HCV NS5B chimeric replicons, the GT1 b replicon was used as a backbone with the NS5B gene replaced with the NS5B gene of GT2a, GT3a, GT4a and GT5a derived from clinical isolates. These NS5B genes were cloned into the GT1b backbone and were confirmed by sequencing.
as §1

[3] = test system: GT1b S96T NS5B mutant replicon; experiment: HCV NS5B mutant replicon assay, GT1b S96T; format: cell-based; settings: Hepatitis C virus, Huh-7, 72 h, read-out: GT1b S96T EC50
Method: as §2, §3, §1

[4] = test system: GT3a L159F NS5B mutant replicon; experiment: HCV NS5B mutant replicon assay, GT3a L159F; format: cell-based; settings: Hepatitis C virus, Huh-7, 72 h, read-out: GT3a L159F EC50
Method: as §2, §4, §3, §1

[5] = test system: GT1b/4a NS5B chimeric replicon; experiment: HCV replicon assay, GT1b/4a NS5B chimeric replicon, transient transfection; format: cell-based, hepatitis C virus; settings: Hepatitis C virus, Huh-7, 72 h, read-out: GT4a EC50, GT1b/4a NS5B chimeric replicon, Huh-7 cells, luciferase, 72 hours
Method: as §2, §4, §1

[6] = Nucleoside phosphoester stability in simulated gastric fluid; format: in vitro ADME; settings: simulated gastric fluid pH 1.2, 2 μM, 37° C.
Method: Test compounds at 2 μM were incubated at 37° C. with simulated gastric fluid (SGF, 0.2% (w/v) sodium chloride in 0.7% (v/v) hydrochloric acid, deionized water, 0.3% pepsin (w/v), pH 1.2). Duplicate samples were used. Samples were removed at 0, 15, 30, 60, 120, 360 and 1440 min, immediately mixed with cold acetonitrile containing internal standard (IS), and stored at −80° C. before analysis. Omeprazole was used as a positive control. Samples were analyzed by LC/MS/MS method, and disappearance of test compound was assessed by comparison of peak area ratios of analyte/IS and reported as % test compound remaining at each time point.

GT1a (H77) HCV replicon = experiment: HCV replicon assay, wild type GT1a (H77), luciferase based, stable format; format: cell-based, hepatitis C virus; settings: Hepatitis C virus, GT1A, Huh-7, 72 h, Huh-7 cells
Method: as §2, §1

Row | SMILES | Selectivity Index (TC50/EC50) (Huh-7 cells) | EC50 [1] [nM] | EC50 [2] [nM] | EC50 [3] [nM] | EC50 [4] [nM] | EC50 [5] [nM] | % Remaining ([6]; 0 min) [%] | % Remaining ([6]; 15 min) [%] | % Remaining ([6]; 30 min) [%] | % Remaining ([6]; 60 min) [%] | % Remaining ([6]; 120 min) [%] | % Remaining ([6]; 360 min) [%] | % Remaining ([6]; 1440 min) [%] | EC50 (GT1a (H77) HCV replicon) [nM]
1 | CC(C)(C)SSc1ccccc1CCOP1(=O)OC[C@H]2O[C@@H](n3ccc(=O)[nH]c3=O)[C@](C)(F)[C@@H]2O1 (single isomer, unassigned) [Compound 7A] | >500 | 15 to 17 | 8 | 8 | 15 | 5 | 100.00 | 95.13 | 99.01 | 92.49 | 91.52 | 91.60 | 70.36 | 5 to 8
2 | CC(C)OC(=O)[C@H](C)N[P@](=O)(OC[C@H]1O[C@@H](n2ccc(=O)[nH]c2=O)[C@](C)(F)[C@@H]1O)Oc1ccccc1 [sofosbuvir, reference compound] | >100 | 63 | 65 | 62 to 314 | 134 | 54 | 100.00 | 93.47 | 99.50 | 99.63 | 95.33 | 87.35 | 61.36 | 40 to 61
